Reference: US8927599B2, “Use of statins as anticonvulsants, antiepileptics and neuroprotectors” (Neuron Biopharma, S.A., priority 2008, dated 2015)
Read-outs that look alike come from different tables or passages of the source.

What was measured:
[1] = tested on: male mice of the FVB/N strain inoculated with kainate (KA); assay: Effect of the route of administration, kainate model (Example 3); type: in vivo; settings: FIG. 5
Method: As shown in Examples 1 and 2, simvastatin has antiepileptic properties and such properties depend on the dose at which said compound is administered. Due to these observations, the inventors decided to investigate if the antiepileptic effect of simvastatin would also be modulated by the route of administration. All the animals included during the experimental process were 16 week old male mice of the FVB/N strain. The experiments were carried out strictly following the Guidance on the Operation of Animals (Scientific Procedures, Act. 1986). The animals had their respective quarantine period and were treated with maximum precaution to minimize possible contaminations during inoculations and handling.
The animals, distributed into different groups, were intraperitoneally inoculated with 25 mg/kg of KA dissolved in PBS, according to the following protocol: • three animals were pretreated, at 24 and 0.5 hours before the inoculation with KA, with simvastatin at a dose of 50 mg/kg by means of direct oral administration; and • two animals were pretreated, at 24 and 0.5 hours before the inoculation with KA, with simvastatin at a dose of 50 mg/kg by means of i.p. injection
(§1) After the inoculation with KA, the animals were individually housed in cages to monitor them. The maximum epilepsy level of the animals was recorded every 10 minutes during the observation according to the Racine scale and for at least 120 minutes post-inoculation (m.p.i.).

[2] = tested on: male mice of the FVB/N strain inoculated with kainate (KA); assay: Kainate-induced convulsions, epilepsy level on the Racine scale and latency (Example 1); type: in vivo; settings: for time of the onset of the first convulsion (latency): KA 30 mg/kg i.p., FIG. 1
Method: (§2) All the animals included during the experimental process were 16 week old male mice of the FVB/N strain [Taconic Farms, Inc. (www.taconic.com)]. The experiments were carried out strictly following the Guidance on the Operation of Animals (Scientific Procedures, Act. 1986). The animals had their respective quarantine period and were treated with maximum precaution to minimize possible contaminations during inoculations and handling.
The animals, distributed into different groups, were intraperitoneally inoculated with 30 mg/kg of kainate (KA) dissolved in phosphate buffer saline (PBS), according to the following protocol: • seven animals were pretreated, at 24 and 0.5 hours before the inoculation with KA, with PBS by means of intraperitoneal (i.p.) injection; • six animals were pretreated, at 24 and 0.5 hours before the inoculation with KA, with simvastatin at a dose of 50 mg/kg by means of i.p. injection; and • four animals were pretreated, at 24 and 0.5 hours before the inoculation with KA, with DNQX (a specific inhibitor of KA receptors) at a dose of 30 mg/kg, by means of i.p. injection.
as §1

patient = settings: cited from earlier work
[3] = tested on: male mice of the FVB/N strain inoculated with kainate (KA); assay: Kainate-induced convulsions and status epilepticus, lovastatin (Example 10); type: in vivo; settings: KA 25 mg/kg i.p., 50 mg/kg i.p. at 24 and 0.5 h before KA
Method: as §2, with “12” for “16”
The mice, distributed into different groups, were intraperitoneally inoculated with 25 mg/kg of KA dissolved in PBS, according to the following protocol: • five mice were pretreated, at 24 and 0.5 hours before the inoculation with KA, with PBS by means of intraperitoneal (i.p.) injection; and • five animals were pretreated, at 24 and 0.5 hours before the inoculation with KA, with lovastatin at a dose of 50 mg/kg by means of i.p. injection
as §1, with “(m.p.i.). Comparative studies of the epilepsy levels between the treatment with PBS and with lovastatin (FIG. 12) were subsequently conducted. […]” for “(m.p.i.).”

## CCC(C)(C)C(=O)O[C@H]1C[C@@H](C)C=C2C=C[C@H](C)[C@H](CC[C@@H]3C[C@@H](O)CC(=O)O3)[C@H]21 [simvastatin]
[1]; 50 mg/kg direct oral administration, reached at 100 m.p.i. and maintained until 120 m.p.i., KA 25 mg/kg
  epileptic level (Racine scale): 2
[1]; 50 mg/kg i.p., 70 m.p.i. of KA 25 mg/kg
  epileptic level (Racine scale): 2
[1]; 50 mg/kg i.p., 120 m.p.i. of KA 25 mg/kg
  epileptic level (Racine scale): 1
[2]; pretreated 50 mg/kg i.p. at 24 and 0.5 h before KA
  time of the onset of the first convulsion (latency): 50.0 ± 11.8 min
[2]; after 30 m.p.i. of KA 30 mg/kg, 50 mg/kg i.p. pretreatment, FIG. 2
  mean epilepsy level (Racine scale): ≤ 4

## CC(C)n1c(/C=C/C(O)CC(O)CC(=O)O)c(-c2ccc(F)cc2)c2ccccc21 (centres unmarked) [fluvastatin]
patient; patient with catastrophic antiphospholipid syndrome, Miesbach et al., J Neurol Sci. 2005
  adverse event after administration to a patient: focal convulsions

## O=[N+]([O-])c1cc2nc(O)c(O)nc2cc1[N+](=O)[O-] [DNQX]
[2]; pretreated 30 mg/kg i.p. at 24 and 0.5 h before KA
  time of the onset of the first convulsion (latency): 23.3 ± 7.6 min
[2]; after 30 m.p.i. of KA 30 mg/kg, 30 mg/kg i.p. pretreatment, FIG. 3
  epilepsy level (Racine scale) versus PBS: prevents the increase of the epileptic levels

## CC(C)c1nc(N(C)S(C)(=O)=O)nc(-c2ccc(F)cc2)c1/C=C/[C@@H](O)C[C@@H](O)CC(=O)O [rosuvastatin]
patient; Lorenzoni et al., Arq Neuropsiquiatr. 2007
  adverse event after administration to a patient: severe rhabdomyolysis with convulsions and coma

## CC[C@H](C)C(=O)O[C@H]1C[C@@H](C)C=C2C=C[C@H](C)[C@H](CC[C@@H]3C[C@@H](O)CC(=O)O3)[C@H]21 [lovastatin]
[3]; PBS 3 of 5
  entrance into status epilepticus: 0 of 5
[3]; PBS+KA about 3, p-value=0.00059, FIG. 12
  epilepsy symptoms (Racine scale) at the end of the observation time: completely reduced the epilepsy symptoms
